Like-named read-outs stand apart in the source and are kept apart here.
Legend:
[1] = tested on: Human CD34+ Hematopoietic stem cells; assay: Human CD34+ hematopoietic stem cell proliferation inhibition experiment; type: cell-based; conditions: 168 h, inhibitory activity against the proliferation of CD34+ hematopoietic stem cells, 7 days
Experimental: Human CD34+ Hematopoietic stem cells (TPCS, Cat.hmPB34-P-2CW) are CD34-positive stem cells obtained from human PBMCs through immunomagnetic bead sorting. The culture conditions are as follows: DPBS (Gibco, Cat.14190-144) +StemSpan SFEM II ([…], Cat.9655) +1X StemSpan CD34+ Expansion Supplement ([…], Cat.2691). First, 40 nL of DMSO, the positive reference compound Talazoparib, or the test compounds were respectively added to a 384-well plate (Corning, Cat. 3764). Then, a cell suspension was added at 400 cells per well in 40 µL of medium, resulting in final concentrations of 0.1% DMSO, 3 µM Talazoparib, or various concentrations of the compounds in each well. The plate was centrifuged at room temperature at 1000 rpm for 1 minute, followed by incubation for 7 days in a 37°C, 5% CO2 incubator. Following incubation, 20 µL of CellTiter-Glo Reagent (Promega, Cat. G7573) was directly added to each well, and the plate was centrifuged at room temperature at 1000 rpm for 1 minute, followed by incubation for 20 minutes in the dark. Following incubation, the chemiluminescent signal (CFU) was read and recorded using an Envision multimode microplate reader (PerkinElmer, Cat. 2104). The cell proliferation inhibition rate at various compound concentrations was calculated according to Equation (3), where CFUhigh control represents the average signal value of the DMSO group, CFUlow control represents the average signal value of the Talazoparib group, and CFUcompound represents the average signal value of the compound-treated group. The processed data obtained from Equation (3) were analysed using XLfit or GraphPad Prism software, and a four-parameter curve fitting model was applied to calculate the compound concentration corresponding to a 50% inhibition rate, i.e., the IC50 value. Inhibition% = (CFUhigh control−CFUcompound)/(CFUhigh control−CFUlow control) × 100% [formula]

[2] = molecular target: T1, AR protein (Homo sapiens, UniProt P10275); assay: Detection of AR degradation in VCaP cells (automated western blot); type: cell-based; conditions: degradation of AR protein in VCaP cells, 24 hours incubation
T1 construct: VCap is a human prostate cancer cell line purchased from ATCC; host or cells: VCaP human prostate cancer cells
T1 sequence (P10275 1-920): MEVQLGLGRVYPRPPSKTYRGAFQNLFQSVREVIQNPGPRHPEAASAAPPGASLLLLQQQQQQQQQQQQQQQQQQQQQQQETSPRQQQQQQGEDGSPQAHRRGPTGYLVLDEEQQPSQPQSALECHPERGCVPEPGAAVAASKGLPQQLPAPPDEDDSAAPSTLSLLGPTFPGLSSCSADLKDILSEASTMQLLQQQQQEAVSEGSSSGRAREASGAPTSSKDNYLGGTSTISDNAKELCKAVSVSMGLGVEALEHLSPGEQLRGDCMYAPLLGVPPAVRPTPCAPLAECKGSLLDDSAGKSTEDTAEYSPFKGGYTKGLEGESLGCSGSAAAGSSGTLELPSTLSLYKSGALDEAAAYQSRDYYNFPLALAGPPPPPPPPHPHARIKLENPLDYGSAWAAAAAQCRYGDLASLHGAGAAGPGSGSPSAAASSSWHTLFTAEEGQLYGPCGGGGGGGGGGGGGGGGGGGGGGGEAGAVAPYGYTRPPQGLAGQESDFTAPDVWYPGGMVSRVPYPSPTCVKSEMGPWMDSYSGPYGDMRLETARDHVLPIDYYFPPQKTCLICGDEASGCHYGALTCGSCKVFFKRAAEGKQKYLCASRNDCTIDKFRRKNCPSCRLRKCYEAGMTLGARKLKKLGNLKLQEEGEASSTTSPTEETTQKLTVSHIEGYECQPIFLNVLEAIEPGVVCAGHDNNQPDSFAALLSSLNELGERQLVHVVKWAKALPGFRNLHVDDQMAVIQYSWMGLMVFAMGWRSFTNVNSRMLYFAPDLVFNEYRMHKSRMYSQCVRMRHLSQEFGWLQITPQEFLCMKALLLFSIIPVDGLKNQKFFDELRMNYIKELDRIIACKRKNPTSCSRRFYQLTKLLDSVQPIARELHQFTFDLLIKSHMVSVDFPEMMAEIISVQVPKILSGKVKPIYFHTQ
How it was run: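 VCaP cells (5 × 10^5/well) were treated with compounds at various concentrations for 24 h at 37°C. Lysate AR level was quantified by automated capillary western blot, normalised to β-actin and expressed relative to solvent control. DC50 came from four-parameter nonlinear regression; degradation rate = 100 − AR%.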

[3] = molecular target: T2, hERG potassium channel (Homo sapiens, UniProt Q12809); assay: hERG potassium ion channel test (manual patch-clamp, CHO cells); type: cell-based; conditions: chinese hamster; inhibitory activity against hERG potassium channel current, CHO cells, whole cell patch-clamp; read-out: IC50
T2 construct: expressed in transfected cells; host or cells: CHO cells stably expressing hERG
T2 sequence (Q12809 whole entry): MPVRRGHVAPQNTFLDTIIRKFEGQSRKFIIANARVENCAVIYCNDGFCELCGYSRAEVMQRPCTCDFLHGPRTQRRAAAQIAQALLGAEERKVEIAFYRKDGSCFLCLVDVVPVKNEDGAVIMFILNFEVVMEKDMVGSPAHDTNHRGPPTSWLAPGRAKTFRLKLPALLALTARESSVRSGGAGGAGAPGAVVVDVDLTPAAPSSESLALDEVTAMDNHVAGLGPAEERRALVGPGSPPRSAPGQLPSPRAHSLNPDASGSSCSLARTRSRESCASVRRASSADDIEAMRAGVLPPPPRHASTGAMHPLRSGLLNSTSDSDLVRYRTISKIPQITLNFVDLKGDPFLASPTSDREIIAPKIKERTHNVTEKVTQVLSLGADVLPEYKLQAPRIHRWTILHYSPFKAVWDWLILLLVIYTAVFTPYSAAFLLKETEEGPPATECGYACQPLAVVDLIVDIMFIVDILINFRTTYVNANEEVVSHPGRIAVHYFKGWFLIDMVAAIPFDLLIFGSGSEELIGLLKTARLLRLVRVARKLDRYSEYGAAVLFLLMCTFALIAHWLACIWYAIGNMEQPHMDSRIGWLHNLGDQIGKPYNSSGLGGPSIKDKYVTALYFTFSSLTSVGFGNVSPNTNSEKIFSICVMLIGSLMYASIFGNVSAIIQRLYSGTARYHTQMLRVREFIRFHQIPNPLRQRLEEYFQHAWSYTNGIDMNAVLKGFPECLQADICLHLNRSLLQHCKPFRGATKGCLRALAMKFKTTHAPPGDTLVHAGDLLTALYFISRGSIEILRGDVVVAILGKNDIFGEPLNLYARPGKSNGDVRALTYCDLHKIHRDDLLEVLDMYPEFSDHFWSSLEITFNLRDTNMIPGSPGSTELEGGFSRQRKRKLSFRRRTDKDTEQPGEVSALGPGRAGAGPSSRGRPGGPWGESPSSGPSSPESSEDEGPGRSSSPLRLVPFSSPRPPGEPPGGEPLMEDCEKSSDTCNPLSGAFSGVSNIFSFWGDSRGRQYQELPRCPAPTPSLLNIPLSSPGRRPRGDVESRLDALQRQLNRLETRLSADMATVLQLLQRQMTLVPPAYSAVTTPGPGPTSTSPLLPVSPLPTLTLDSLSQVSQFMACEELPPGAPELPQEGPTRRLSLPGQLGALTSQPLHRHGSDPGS
Source text: Experimental platform: Electrophysiological manual patch-clamp system
Cell line: Chinese hamster ovary (CHO) cell lines stably expressing hERG potassium ion channel
Experimental method: In Chinese Hamster Ovary (CHO) cells stably expressing hERG potassium channel, whole cell patch-clamp technique was used to record hERG potassium channel current at room temperature. The glass microelectrode was made of a glass electrode blank (BF150-86-10, Sutter) by a puller. The tip resistance after filling the liquid in the electrode was about 2-5 MΩ. The glass microelectrode can be connected to the patch-clamp amplifier by inserting the glass microelectrode into an amplifier probe. The clamping voltage and data recording were controlled and recorded by the pClamp 10 software through a computer. The sampling frequency was 10 kHz, and the filtering frequency was 2 kHz. After the whole cell records were obtained, the cells were clamped at -80 mV, and the step voltage that induced the hERG potassium current (I hERG) was depolarised from -80 mV to +20 mV for 2 s, then repolarised to -50 mV, and returned to -80 mV after 1 s. This voltage stimulation was given every 10 s, and the administration process was started after the hERG potassium current was confirmed to be stable (at least 1 minute). The compound was administered for at least 1 minute at each test concentration, and at least 2 cells (n ≥ 2) were tested at each concentration.
Data processing: Data analysis processing was carried out by using pClamp 10, GraphPad Prism 5 and Excel software.
Compound IC50 was calculated using GraphPad Prism 5 software by fitting according to the following equation: Y = Bottom + (Top−Bottom)/(1+10^(∧)((LogIC50−X)*HillSlope)) [formula] where X represents the Log value of the tested concentration of the test sample, Y represents the inhibition percentage at the corresponding concentration, and Bottom and Top represent the minimum and maximum inhibition percentage, respectively.

[4] = tested on: VCaP cells; assay: VCaP cell proliferation inhibition experiment (CellTiter-Glo); type: cell-based; conditions: Homo sapiens, 168 h
Experimental: After centrifugation and resuspension, viable cell counting was performed using a Vi-Cell XR cell counter. […] Then, 180 µl of the cell suspension was added per well to a 96-well cell culture plate at a cell density of 7,500 cells/well. At the time of seeding, T0 wells were also prepared. The following day, R1881 at a final concentration of 0.1 nM and compounds at various concentrations were added. The plate was placed back into the incubator and cultured for an additional 7 days. At the time of compound addition, the T0 plate was measured using the CellTiter-Glo (CTG) kit (Promega, Cat. No. G7572) and recorded as RLU0. Following incubation, 75 µl of pre-thawed and room temperature-equilibrated CellTiter-Glo solution was added to each well. […] The results were processed according to Equation (2). […] Growth% = (RLUcompound−RLU0)/(RLUcontrol−RLU0) × 100% [formula]

[5] = Pharmacokinetic test in mice; type: in vivo, ICR mice; conditions: i.g. (5 mg/kg), Vehicle 3: 5% DMSO+5% Solutol+90% (20% SBE-β-CD); for AUC(0-t): mouse, plasma, po
Experimental: (§1) Experimental objective: In this experiment, a single dose of the test compound was administered to ICR mice via intravenous administration and intragastric gavage, and the concentration of the test compound in plasma of the mice was measured to evaluate the pharmacokinetic profile of the test compound in the mice.
Experimental animals: Male ICR mice, 6 mice/compound, purchased from Chengdu Ddossy Experimental Animals Co., Ltd.
(§2) Experimental method: On the day of the experiment, 6 SD mice were randomly grouped according to their body weights. The animals were fasted with water available for 12 to 14 h one day before the administration, and were fed 4 h after the administration. Table 6 Administration information of pharmacokinetic test in mice
Sampling: Before and after the administration, 0.15 mL of blood was taken from the orbits under isoflurane anaesthesia, and placed in an EDTAK2 centrifuge tube. Centrifugation was carried out at 5000 rpm at 4°C for 10 min, and the plasma was collected.
The plasma collection time points for PO groups were 0, 5 min, 15 min, 30 min, 1 h, 2 h, 4 h, 7 h, 24 h, and 48 h.
The plasma collection time points for IV groups were 0, 5 min, 15 min, 30 min, 1 h, 2 h, 4 h, 7 h, 24 h, and 48 h.
Before analysis and detection, all samples were stored at -60°C. The samples were analysed quantitatively by LC-MS/MS. Table 7 Pharmacokinetic parameters of compounds of the present invention in plasma of mice

[6] = Pharmacokinetic test in rats; type: in vivo, SD rats; conditions: i.g. (5 mg/kg), vehicle 5% DMSO+5% Solutol+90% (20% SBE-β-CD); for AUC(0-t): rat, plasma, po
Experimental: as §1, with “SD rats” for “ICR mice”, “rats” for “mice”, “rats.” for “mice.”
Experimental animals: Male SD rats, 200-220 g, 6 rats/compound, purchased from Chengdu Ddossy Experimental Animals Co., Ltd.
as §2, with “SD rats” for “SD mice”, “Table 3” for “Table 6”, “in rats” for “in mice”
Sampling: Before and after the administration, 0.1 mL of blood was taken from the orbits under isoflurane anaesthesia, and placed in an EDTAK2 centrifuge tube. Centrifugation was carried out at 5000 rpm at 4°C for 10 min, and the plasma was collected.
The plasma collection time points for IV&PO groups were 0, 5 min, 15 min, 30 min, 1 h, 2 h, 4 h, 7 h, 24 h, and 48 h.
Before analysis and detection, all samples were stored at -60°C. The samples were analysed quantitatively by LC-MS/MS. Table 4 Pharmacokinetic parameters of compounds of the present invention in plasma of rats

Structure (SMILES) | IC50 [1] [nM] | DC50 ([2]; read-out: DC50) [nM] | IC50 [3] [nM] | GI50 [4] [nM] | F [5] [%] | AUC(0-t) [5] [ng·h/mL] | F [6] | AUC(0-t) [6] [ng·h/mL] | DC50 [2] [nM]
COc1cc(O[C@H]2C(C)(C)[C@H](NC(=O)c3ccc(N4CCC5(CC4)CC(CN4CCN6c7cc(F)c(C(=O)N[C@H]8CCC(=O)NC8=O)cc7CC[C@H]6C4)C5)cc3)C2(C)C)ccc1C#N [Trifluoroacetate of compound 7] | > 10000 | < 100 |  |  |  |  |  |  | 
COc1cc(O[C@H]2C(C)(C)[C@H](NC(=O)c3ccc(N4CCC(CN5CCN6c7cc(F)c(C(=O)N[C@H]8CCC(=O)NC8=O)cc7CC[C@@H]6C5)CC4)cc3)C2(C)C)ccc1C#N [Compound 11] | > 10000 | < 100 | > 40000 | < 300 |  |  |  |  | 
COc1cc(O[C@H]2C(C)(C)[C@H](NC(=O)c3ccc(N4CCC(CN5CCN6c7cc(F)c(C8CCC(=O)NC8=O)cc7CC[C@@H]6C5)CC4)nn3)C2(C)C)ccc1C#N (stereo partly drawn) [Trifluoroacetate of compound 60] |  |  |  | < 300 | 84.2±8.4 | 41600 ± 4140 | 57.5±3.0% | 6600 ± 349 | < 100
COc1cc(O[C@H]2C(C)(C)[C@H](NC(=O)c3ccc(N4CCC(CN5CCN6c7cc(F)c(C8CCC(=O)NC8=O)cc7CC[C@H]6C5)CC4)nn3)C2(C)C)ccc1C#N (stereo partly drawn) [Trifluoroacetate of compound 61] |  | < 100 |  | < 300 | 98.8±12 | 28500 ± 3460 | 43.5+14% | 5460 | 
